# In patent publication US10953011B2, “Methods of treating virally associated cancers with histone deacetylase inhibitors” (priority 2019, dated 2021):
# Key:
# [1] = system: Histone 3 acetylation in peripheral blood mononuclear cells; test: H3 acetylation in PBMC by flow cytometry; type: cell-based, human
# Excerpt: Percentage of cells with H3 acetylation, as determined by flow cytometry, is shown.
# Since H3 acetylation is a pharmacodynamic biomarker of Nstat activity, acetylation of H3 was examined in treated cells.
# [2] = system: P3HR1 Burkitt's lymphoma cells; test: Cell death (7AAD) after Nstat, washout, then ganciclovir
# Description: P3HR1 Burkitt's lymphoma cells were incubated with DMSO (solvent control) or Nstat for 3 days. After that time cell cultures were washed re-fed with ganciclovir (GCV) for an additional 3 days. All test conditions were run in triplicate. Cell death was measured by 7AAD staining.
compound,measurement,setting,value
"O=C(NO)c1cnc(N2C[C@@H]3[C@H](C2)[C@H]3NCc2ccc3cc(F)ccc3n2)nc1 [Nanatinostat, 2-((1R,5S,6s)-6-(((6-fluoroquinolin-2-yl)methyl)amino)-3-azabicyclo[3.1.0]hexan-3-yl)-N-hydroxypyrimidine-5-carboxamide]",Duration of effect on H3 acetylation,"[1]; PBMC of healthy donors, time-course, doses down to 10 nM, FIG. 3",long-lasting
same,Potency in inducing elevated levels of Histone 3 acetylation,"[1]; PBMC of healthy volunteers, even at 100 nM, FIG. 2",much more potent than entinostat
same,Increase of cytotoxic activity when combined with Ganciclovir,[2],~40%
same,Cell cytotoxicity when combined with ganciclovir,"[2]; EBV infected cell line, seen even after Nstat removal",increases cell cytotoxicity
